How the values were obtained:
[1] = set-up: method as in Hamprecht et al., 2007; settings: ref Hamprecht et al., 2007; cited from earlier work
[2] = target: T1, 5-HT2C (Homo sapiens, UniProt P28335); experiment: 5-HT2C competition binding assay with [^3H]mesulergine (NIMH PDSP); settings: for Ki: competition with [^3H]mesulergine, mean of three experiments ± SD, read-out: Binding affinity Ki, 5-HT2C; for 5-HT2C binding less than that for 9: relative to compound 9
T1 sequence (P28335 33-458): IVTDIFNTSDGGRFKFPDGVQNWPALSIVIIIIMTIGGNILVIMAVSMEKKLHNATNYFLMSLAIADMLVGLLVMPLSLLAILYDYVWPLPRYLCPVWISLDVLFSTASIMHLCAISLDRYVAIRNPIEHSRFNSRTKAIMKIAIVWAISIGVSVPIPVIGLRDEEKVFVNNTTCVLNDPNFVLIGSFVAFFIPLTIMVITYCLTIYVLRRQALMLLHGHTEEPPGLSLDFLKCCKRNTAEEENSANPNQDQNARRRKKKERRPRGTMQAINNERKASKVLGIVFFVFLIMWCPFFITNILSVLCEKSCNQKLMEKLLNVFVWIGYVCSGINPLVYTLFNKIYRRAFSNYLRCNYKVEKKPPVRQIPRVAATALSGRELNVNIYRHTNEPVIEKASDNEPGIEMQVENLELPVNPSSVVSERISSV
Description: (§1) We selected 6 and 9 for carbon-11 radiolabelling and PET imaging studies.

[3] = target: T2, 5-HT2A (Homo sapiens, UniProt P28223); experiment: competition binding assay (NIMH PDSP), 5-HT2A; settings: read-out: Binding affinity Ki, 5-HT2A
T2 sequence (P28223 whole entry, species assumed): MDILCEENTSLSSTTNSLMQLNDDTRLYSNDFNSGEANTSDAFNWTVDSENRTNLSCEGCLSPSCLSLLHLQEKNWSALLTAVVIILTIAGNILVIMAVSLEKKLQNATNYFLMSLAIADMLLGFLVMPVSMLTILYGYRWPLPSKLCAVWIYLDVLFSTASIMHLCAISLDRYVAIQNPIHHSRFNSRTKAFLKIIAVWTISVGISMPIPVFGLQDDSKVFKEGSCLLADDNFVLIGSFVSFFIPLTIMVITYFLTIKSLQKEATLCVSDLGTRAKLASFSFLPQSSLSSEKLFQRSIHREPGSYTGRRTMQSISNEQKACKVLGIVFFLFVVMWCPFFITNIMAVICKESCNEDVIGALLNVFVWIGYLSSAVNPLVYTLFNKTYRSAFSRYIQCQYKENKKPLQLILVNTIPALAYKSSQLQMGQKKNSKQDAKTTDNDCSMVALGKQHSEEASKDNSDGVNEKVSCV

[4] = target: T2, 5-HT2A; experiment: primary binding, 5-HT2A
Description: as §1

[5] = target: D1-D5; experiment: competition binding assay (NIMH PDSP), dopamine D1-D5; settings: read-out: Binding affinity Ki, D1-D5
[6] = target: 5-HT5–7; experiment: competition binding assay (NIMH PDSP), 5-HT5–7; settings: read-out: Binding affinity Ki, 5-HT5–7
[7] = target: T3, 5-HT1A (Homo sapiens, UniProt P08908); experiment: competition binding assay (NIMH PDSP), 5-HT1A; settings: read-out: Binding affinity Ki, 5-HT1A
T3 sequence (P08908 1-422): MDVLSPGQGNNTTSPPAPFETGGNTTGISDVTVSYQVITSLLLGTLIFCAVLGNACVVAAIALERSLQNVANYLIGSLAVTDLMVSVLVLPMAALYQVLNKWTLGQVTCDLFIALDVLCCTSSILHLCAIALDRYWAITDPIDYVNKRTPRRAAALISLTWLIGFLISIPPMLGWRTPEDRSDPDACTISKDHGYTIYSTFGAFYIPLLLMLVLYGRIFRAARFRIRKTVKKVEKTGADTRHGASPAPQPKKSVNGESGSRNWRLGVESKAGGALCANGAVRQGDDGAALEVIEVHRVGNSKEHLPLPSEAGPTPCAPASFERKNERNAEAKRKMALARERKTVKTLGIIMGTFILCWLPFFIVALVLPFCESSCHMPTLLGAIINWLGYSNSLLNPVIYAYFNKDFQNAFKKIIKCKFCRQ

[8] = target: 5-HT2B (Homo sapiens, UniProt P41595); experiment: competition binding assay (NIMH PDSP), 5-HT2B; settings: mean of three experiments ± SD, read-out: Binding affinity Ki, 5-HT2B
5-HT2B, sequence (P41595 whole entry, species assumed): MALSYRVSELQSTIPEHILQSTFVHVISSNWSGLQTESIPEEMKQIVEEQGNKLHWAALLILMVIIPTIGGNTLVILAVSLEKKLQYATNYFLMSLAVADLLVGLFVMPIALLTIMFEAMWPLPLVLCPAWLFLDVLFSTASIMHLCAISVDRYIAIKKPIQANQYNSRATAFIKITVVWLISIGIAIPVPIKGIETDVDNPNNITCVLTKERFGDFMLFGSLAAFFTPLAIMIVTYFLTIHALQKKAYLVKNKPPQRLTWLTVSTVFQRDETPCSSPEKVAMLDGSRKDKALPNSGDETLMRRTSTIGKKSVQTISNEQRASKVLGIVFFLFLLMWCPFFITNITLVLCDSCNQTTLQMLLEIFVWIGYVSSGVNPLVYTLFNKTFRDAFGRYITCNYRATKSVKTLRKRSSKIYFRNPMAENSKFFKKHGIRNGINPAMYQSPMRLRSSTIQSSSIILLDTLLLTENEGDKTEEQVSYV

[9] = solubility in the injection form; type: physicochemical; settings: 10% ethanol in saline
Method: (§2) To test specific binding of [^11C]6 and [^11C]9 to the choroid plexus and hippocampus, an in vivo microPET blocking study was performed with 0.1 mg/kg SB-242084 30 min prior to injection, respectively. Unfortunately, due to the unexpected low solubility of SB-242084 in the injection form (10% ethanol in saline), the administered SB-242084 in soluble form to the monkeys was likely much less than the target 0.1 mg/kg. As a result, the uptake of [^11C]6 and [^11C]9 in the choroid plexus and hippocampus was still present.

[10] = target: 5-HT2CR; settings: no reference given; cited from earlier work
[11] = test system: 5-HT2CR; set-up: method as in Zeng et al., 2018; settings: rhesus monkeys; ref Zeng et al., 2018; cited from earlier work
[12] = target: T4, 5-HT2CR (Rattus norvegicus, UniProt P08909); experiment: microPET/CT brain imaging in rats; type: in vivo, Sprague–Dawley rats; settings: for effect of pretreatment with SB-242084 on uptake: 0.1 mg/kg SB-242084 prior to injection; for ratio of uptake in choroid plexus to cerebellum, peak / ratio of uptake in hippocampus to cerebellum, peak: i.v., baseline, from time-activity curves
T4 construct: from tissue; host or cells: brain of living Sprague–Dawley rats (choroid plexus, hippocampus)
T4 sequence (P08909 33-460): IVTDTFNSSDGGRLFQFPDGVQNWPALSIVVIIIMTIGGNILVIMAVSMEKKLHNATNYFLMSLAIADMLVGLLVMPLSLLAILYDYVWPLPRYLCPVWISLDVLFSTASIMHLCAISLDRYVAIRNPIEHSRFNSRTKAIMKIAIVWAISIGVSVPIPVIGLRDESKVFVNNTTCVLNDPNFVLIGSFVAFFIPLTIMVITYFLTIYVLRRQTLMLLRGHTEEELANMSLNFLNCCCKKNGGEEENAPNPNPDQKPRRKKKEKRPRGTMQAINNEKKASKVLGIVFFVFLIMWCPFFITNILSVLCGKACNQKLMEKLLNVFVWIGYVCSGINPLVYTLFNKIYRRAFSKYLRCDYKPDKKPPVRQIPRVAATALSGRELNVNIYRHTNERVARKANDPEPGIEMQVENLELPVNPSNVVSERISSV
Method: [^11C]6 and [^11C]9 were intravenously administered to Sprague–Dawley rats and brain images were acquired with a Siemens Inveon microPET/CT imaging system, respectively (Figure 2).
FIGURE 2 PET analysis of [^11C]6 and [^11C]9 in Sprague–Dawley rats. (A) Summed images of [^11C]6 PET/CT data from 10 to 120 min p.i. at baseline. Orange arrows depict choroid plexus; Blue arrows depict hippocampus. (B) Summed images of [^11C]6 PET/CT data from 10 to 120 min p.i. after pretreatment with 0.1 mg/kg of SB-242084. (C) Mean (n = 3) time-activity curves for brain regions of interest of [^11C]6 at baseline with standard error. (D) Mean (n = 3) time-activity curves for brain regions of interest of [^11C]6 after pretreatment with 0.1 mg/kg of SB-242084 with standard error. (E) Mean (n = 3) time-activity curves for brain regions of interest of [^11C]9 at baseline with standard error. (F) Mean (n = 3) time-activity curves for brain regions of interest of [^11C]9 after pretreatment with 0.1 mg/kg of SB-242084 with standard error.

[13] = lipophilicity, octanol/phosphate buffer partition; type: physicochemical; settings: pH 7.4, read-out: log P7.4
Method: [^11C]6 and [^11C]9 were prepared via O-methylation of 10 and 11 with [^11C]CH3I in the presence of 0.1 M Bu4NOH in DMF followed by HPLC purification, respectively. [^11C]6 and [^11C]9 were obtained in an average radiochemical yield of 37–44 ± 4% (n = 10, decay corrected) with ≥97% radiochemical and chemical purity. The total synthesis time was 50 ± 5 min end of bombardment and the specific activity were in the range of 0.5–1.2 Ci/μmol at time of injection. The lipophilicities of 6 and 9 (octanol/phosphate buffer partition) were measured. The log P7.4 values of [^11C]6 and [^11C]9 are 2.81 and 2.89, respectively, which are in the optimal range (1.0–3.0) for compounds expected to enter the brain readily.

[14] = test system: 5-HT2CR; experiment: microPET brain imaging in rhesus monkeys; type: in vivo; settings: rhesus monkey; for effect of pretreatment with SB-242084 on uptake in choroid plexus and hippocampus: target 0.1 mg/kg SB-242084 30 min prior to injection (soluble dose likely much less)
Description: [^11C]6 and [^11C]9 were further evaluated in rhesus monkeys using a Siemens MicroPET Focus 220 scanner (Figure 3). […] Ratios of uptake in choroid plexus, hippocampus, amygdala, frontal cortex to that in cerebellum peaked at 2.7, 1.6, 1.3, and 1.1, respectively.
FIGURE 3 PET-MRI analysis of [^11C]6 and [^11C]9 in rhesus monkey. (A) MicroPET images of [^11C]6 (left) and corresponding fused PET/MRI images summed over all time at baseline. (B) MicroPET images [^11C]6 (left) and corresponding fused PET/MRI images summed over all time after pretreatment with 0.1 mg/kg of SB-242084. (C) Time-activity curves of [^11C]6 for brain regions of interest at baseline study. (D) Time-activity curves of [^11C]6 for brain regions after pretreatment with SB-242084. (E) Time-activity curves of [^11C]9 for brain regions of interest at baseline study. (F) Time-activity curves of [^11C]9 for brain regions after pretreatment with SB-242084.
as §2

[15] = test system: 5-HT2CR; set-up: method as in Neelamegam et al., 2014; settings: PET imaging; ref Neelamegam et al., 2014; cited from earlier work

COc1ccc(N2Cc3cccc(Cl)c3C2=O)cc1OCCN1CCC(C)CC1 [Compound 6, 7-chloro-2-[4-methoxy-3-[2-(4-methylpiperidin-1-yl)ethoxy]phenyl]isoindolin-1-one]
brain permeability as measured by brain to blood plasma ratio [1]: great | Ki [2]: 2.2 ± 0.3 nM | 5-HT2C binding less than that for 9 [2]: 2–3 times | Ki [3]: > 1000 nM | primary bindings at 5-HT2A [4]: < 50% | Ki [5]: > 1000 nM | Ki [6]: > 1000 nM | Ki [7]: > 1000 nM | Ki [8]: 194 ± 74 nM

COc1ccc(N2Cc3cccc(Br)c3C2=O)cc1OCCN1CCC(C)CC1 [Compound 7]
brain permeability as measured by brain to blood plasma ratio [1]: great | Ki [2]: 2.9 ± 0.7 nM | 5-HT2C binding less than that for 9 [2]: 2–3 times | Ki [3]: > 1000 nM | primary bindings at 5-HT2A [4]: < 50% | Ki [5]: > 1000 nM | Ki [6]: > 1000 nM | Ki [7]: > 1000 nM | Ki [8]: 177 ± 75 nM

COc1ccc(N2Cc3cccc(F)c3C2=O)cc1OCCN1CCC(C)CC1 [Compound 8]
Ki [2]: 28 ± 14 nM | Ki [3]: > 1000 nM | Ki [5]: > 1000 nM | Ki [6]: > 1000 nM | Ki [7]: > 1000 nM | Ki [8]: 434 ± 204 nM

COc1ccc(N2Cc3cccc(I)c3C2=O)cc1OCCN1CCC(C)CC1 [Compound 9, 7-iodo-2-[4-methoxy-3-[2-(4-methylpiperidin-1-yl)ethoxy]phenyl]isoindolin-1-one]
Ki [2]: 1.1 ± 0.3 nM | Ki [3]: > 1000 nM | primary bindings at 5-HT2A [4]: < 50% | Ki [5]: > 1000 nM | Ki [6]: > 1000 nM | Ki [7]: > 1000 nM | Ki [8]: 126 ± 28 nM

Cc1cc2c(cc1Cl)N(C(=O)Nc1ccc(Oc3cccnc3C)nc1)CC2 [SB-242084]
solubility in the injection form [9]: low | Ki [10]: 3.6 nM

Cc1ccc2c(C(=O)Nc3ccc(Oc4cccnc4C)nc3)c[nH]c2c1 [[^11C]5, 6-methyl-N-[6-[(2-methyl-3-pyridinyl)oxy]-3-pyridinyl]1H-indole-3-carboxamide]
level of specific binding in the choroid plexus [11]: high | overall brain uptake and retention [11]: low

CC1CCN(CCOc2cc(N3Cc4cccc(Cl)c4C3=O)ccc2O[11CH3])CC1 [[^11C]6, [^11C]7-Chloro-2-[4-methoxy-3-[2-(4-methylpiperidin-1-yl)ethoxy]phenyl]isoindolin-1-one]
effect of pretreatment with SB-242084 on uptake [12]: reduction of radioactivity uptake in choroid plexus and hippocampus to the same level as of the cerebellum | ratio of uptake in choroid plexus to cerebellum, peak [12]: 1.8 | ratio of uptake in hippocampus to cerebellum, peak [12]: 1.2 | logD [13]: 2.81 | blood-brain barrier penetration [14]: excellent | SUV in choroid plexus (peak uptake) ([14]; baseline): 5.6 | SUV in hippocampus ([14]; baseline): 4.6 | ratio of uptake in amygdala to cerebellum, peak ([14]; baseline): 1.3 | ratio of uptake in choroid plexus to cerebellum, peak ([14]; baseline): 2.7 | ratio of uptake in frontal cortex to cerebellum, peak ([14]; baseline): 1.1 | ratio of uptake in hippocampus to cerebellum, peak ([14]; baseline): 1.6 | time of peak radioactivity uptake in choroid plexus ([14]; baseline, after injection): 20 to 30 min | time of peak uptakes in hippocampus, amygdala, frontal cortex and cerebellum ([14]; baseline, postinjection): 9.5 to 18.5 min | effect of pretreatment with SB-242084 on uptake in choroid plexus and hippocampus [14]: a reduction in the uptake and faster washout

CC1CCN(CCOc2cc(N3Cc4cccc(I)c4C3=O)ccc2O[11CH3])CC1 [[^11C]9, [^11C]7-iodo-2-[4-methoxy-3-[2-(4-methylpiperidin-1-yl)ethoxy]phenyl]isoindolin-1-one]
effect of pretreatment with SB-242084 on uptake [12]: reduction of radioactivity uptake in choroid plexus and hippocampus to the same level as of the cerebellum | ratio of uptake in choroid plexus to cerebellum, peak [12]: 1.9 | ratio of uptake in hippocampus to cerebellum, peak [12]: 1.3 | logD [13]: 2.89 | blood-brain barrier penetration [14]: excellent | SUV in choroid plexus (peak uptake) ([14]; baseline): 2.01 | SUV in hippocampus ([14]; baseline): 1.46 | ratio of uptake in choroid plexus to cerebellum, peak ([14]; baseline): 3.7 | ratio of uptake in hippocampus to cerebellum, peak ([14]; baseline): 2.7 | time of peak uptake in choroid plexus and hippocampus ([14]; baseline, after injection): 25 to 55 min | effect of pretreatment with SB-242084 on uptake in choroid plexus and hippocampus [14]: a reduction in the uptake and faster washout

c1cc2c3c(c1)[C@H]1CCC[C@H]1CN3CCN[11CH2]2 [[^11C]Vabicaserin]
non-specific binding in baboon brains [15]: high

c1cc2c3c(c1)[C@H]1CCC[C@H]1N3CCN[11CH2]2 [[^11C]WAY-163909]
non-specific binding in baboon brains [15]: high

From publication PMC8661056, “Synthesis and Evaluation of [^11C]7-Halogen-2-Phenyl Isoindolone Derivatives: Potential PET Radioligands for in vivo Imaging of 5-HT2C Receptors” (Frontiers in Neuroscience, 2021)
